The text below walks through data of patent US9458120B2, “Phenoxypropanol derivative and pharmaceutical composition including the same” (KOREA INSTITUTE OF SCIENCE AND TECHNOLOGY, priority 2011, dated 2016).

The target in one experiment is T1, TREK-1 channel (Rattus norvegicus, UniProt Q920B6).
T1 construct: expressed in transfected cells; host or cells: COS7 (Korean Cell Line Bank), transient transfection with Effectene
T1 sequence (Q920B6 1-426): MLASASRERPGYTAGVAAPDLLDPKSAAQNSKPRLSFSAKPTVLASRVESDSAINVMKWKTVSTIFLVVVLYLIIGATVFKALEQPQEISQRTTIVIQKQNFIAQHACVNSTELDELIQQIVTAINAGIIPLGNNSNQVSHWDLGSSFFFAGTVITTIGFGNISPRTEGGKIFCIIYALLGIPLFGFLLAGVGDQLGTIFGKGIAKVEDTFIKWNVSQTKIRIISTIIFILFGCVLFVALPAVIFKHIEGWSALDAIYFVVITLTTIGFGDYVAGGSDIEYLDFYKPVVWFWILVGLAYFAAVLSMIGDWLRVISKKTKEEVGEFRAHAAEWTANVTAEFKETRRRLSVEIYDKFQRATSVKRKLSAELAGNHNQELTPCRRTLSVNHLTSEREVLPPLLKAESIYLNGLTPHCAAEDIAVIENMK
Put plainly: Assay for TREK channel inhibition activity (whole cell patch clamp recording, COS7 cell transfected with GFP-rTREK-1). It counts as cell-based. The note with it: COS7 cells, GFP-rTREK-1, whole-cell patch clamp; for inhibition at 101 µM: COS-7, Table 3 (value ± spread), 101 μM [sic], read-out: block % at 101 μM; for inhibition at 10 µM: COS-7, Table 2, read-out: block % at 10 μM. As for the experimental part:
The inhibition activity of the compound of the present invention against TREK-1 channel was measured by measuring the physiological activity by whole cell patch clamp recording.
COS7 cell (obtained from Korean Cell Line Bank (KCLB)) was transfected with GFP-rTREK-1 gene (accession number: AY727922) using an Effectene transfection reagent (Qiagen), and cultured for 24 hours in an incubator at 37° C. As a culture medium, Dulbecco's modified Eagle's medium (DMEM, GIBCO products from Invitrogen) containing 10% by weight of fetal bovine serum (FBS) and 1% by weight of penicillin/streptomycin (5000 unit/ml) was used. The cells thus prepared were adhered on a cover glass, which was placed on a chamber, and then a recording solution (150 mM NaCl, 10 mM HEPES, 10 mM KCl, 2 mM CaCl2, 5.5 mM D-Glucose, all reagents were purchased from Sigma) was applied. A glass microelectrode was filled with an intracellular solution prepared with the composition of 150 mM KCl, 5 mM EGTA, 10 mM HEPES, 0.5 mM CaCl2, 1 mM MgCl2, 4 mM Mg-ATP, and 0.3 mM Na-GTP (all reagents were purchased from Sigma), followed by whole-cell patch clamp recording. The voltage was fixed at −70 mV using a Digidata 1322A data acquisition system (Molecular Devices) and an Axopatch 200A amplifier (Axon Instruments), and the current generated by applying a voltage ramp from −100 mV to +100 mV for 1 second was measured using a Clampex9.2 program. A difference between the current values measured at +100 mV and −100 mV was defined as a current in the above experiment. The currents before and after blocker treatment were measured so as to determine the inhibition activity.
Block %=100−(current after blocker treatment/current before blocker treatment)*100

In experiment [1] the target is α1G T-type calcium channel (Homo sapiens, UniProt O43497). Put plainly: Assay for T-type calcium channel inhibition activity (FDSS6000 calcium imaging, KCl activation). It counts as cell-based. To be noted: 75 s pre-treatment then KCl 75 mM, HEK293 cells expressing α1G T-type calcium channel and Kir2.1. The procedure:
At 12-24 hours before the assay for T-type calcium channel activity, cells of HEK293 cell line (α1G cell line: KCTC 10519BP, GenBank, Korea Research Institute of Bioscience and Biotechnology) which stably express α1G T-type calcium channel and Kir2.1, were sub-cultured in a poly-L-lysine (0.05 mg/ml) treated 96-well plate with the density of 4×10^4 per a well using a 96-well cell dispenser (Titertek). On the day of assay, the 96-well plate to which the cells were attached were washed three times with a HEPES buffer solution (unit mM: 150 NaCl, 5 KCl, 1 MgCl2, 2 CaCl2, 10 HEPES, 10 glucose, pH 7.4) using a 96-well plate automatic washing device (Bio Tek), and then reacted with a HEPES buffer solution containing 5 μM fluo-3/AM and 0.001% (w/v) Pluronic F-127 at room temperature for 1 hour, to label with fluorescent dye, and then further washed twice with the HEPES buffer solution. Thereafter, at 10 minutes before the measurement using a FDSS6000 device, a washing with a HEPES buffer solution containing 10 mM CaCl2 was conducted once more, and the final volume was adjusted to 81 μl. Besides the above 96-well plate containing the cells, additional two 96-well drug plates were provided, in which the 96-well plates contained KCl (final concentration: 75 mM) for activating T-type calcium channel and a blocker drug, respectively.
Since most of cell-based HTS (High throughput screening) devices are equipped with a liquid application system for drug injection, but have no liquid sucking system, the blocker drug to be tested and KCl were respectively provided at the five-times higher concentration in 10 mM CaCl2 HEPES buffer solution at the amount of 27 μl, diluted five-times at the final cell plate volume of 135 μl, and then used in this test. In this Experimental Example, therefore, FDSS6000 (Hamamatsu Photonics) was used as an alternative to HTS device.
Specific FDSS6000 measurement conditions are as follows: After recording the reference value of 20 seconds, the change of intracellular calcium concentration which induced by pre-treatment of the drug (the prepared […]) for 75 seconds followed by administration of KCl was measured, in which the percentage (%) inhibition effect of the test drug was determined, through estimating the area of ratio value of 340/380 in the control without treatment of the test drug as 100%. As a reference drug, 10 μM of mibefradil was always used.
For accurate calcium-imagination, the light sources of 4 xenon lamps in FDSS6000 were radiated to make the cells exposed selectively to the excitation wavelength (340 nm and 380 nm) by computer-controlled filter wheel. Data was obtained at interval of each 1.23 second. The emitter fluorescence light inflow through a 515 nm long-pass filter was obtained as an average 340/380 ratio value for each well in the 96-wells by a cooled CCD camera and digital fluorescence analyzer in the device. All image data and analysis were obtained by using a FDSS6000-exclusive program provided by Hamamatsu Photonics, as described above.

SMILES strings stand for the structures.

Chain of α1G T-type calcium channel (O43497 whole entry): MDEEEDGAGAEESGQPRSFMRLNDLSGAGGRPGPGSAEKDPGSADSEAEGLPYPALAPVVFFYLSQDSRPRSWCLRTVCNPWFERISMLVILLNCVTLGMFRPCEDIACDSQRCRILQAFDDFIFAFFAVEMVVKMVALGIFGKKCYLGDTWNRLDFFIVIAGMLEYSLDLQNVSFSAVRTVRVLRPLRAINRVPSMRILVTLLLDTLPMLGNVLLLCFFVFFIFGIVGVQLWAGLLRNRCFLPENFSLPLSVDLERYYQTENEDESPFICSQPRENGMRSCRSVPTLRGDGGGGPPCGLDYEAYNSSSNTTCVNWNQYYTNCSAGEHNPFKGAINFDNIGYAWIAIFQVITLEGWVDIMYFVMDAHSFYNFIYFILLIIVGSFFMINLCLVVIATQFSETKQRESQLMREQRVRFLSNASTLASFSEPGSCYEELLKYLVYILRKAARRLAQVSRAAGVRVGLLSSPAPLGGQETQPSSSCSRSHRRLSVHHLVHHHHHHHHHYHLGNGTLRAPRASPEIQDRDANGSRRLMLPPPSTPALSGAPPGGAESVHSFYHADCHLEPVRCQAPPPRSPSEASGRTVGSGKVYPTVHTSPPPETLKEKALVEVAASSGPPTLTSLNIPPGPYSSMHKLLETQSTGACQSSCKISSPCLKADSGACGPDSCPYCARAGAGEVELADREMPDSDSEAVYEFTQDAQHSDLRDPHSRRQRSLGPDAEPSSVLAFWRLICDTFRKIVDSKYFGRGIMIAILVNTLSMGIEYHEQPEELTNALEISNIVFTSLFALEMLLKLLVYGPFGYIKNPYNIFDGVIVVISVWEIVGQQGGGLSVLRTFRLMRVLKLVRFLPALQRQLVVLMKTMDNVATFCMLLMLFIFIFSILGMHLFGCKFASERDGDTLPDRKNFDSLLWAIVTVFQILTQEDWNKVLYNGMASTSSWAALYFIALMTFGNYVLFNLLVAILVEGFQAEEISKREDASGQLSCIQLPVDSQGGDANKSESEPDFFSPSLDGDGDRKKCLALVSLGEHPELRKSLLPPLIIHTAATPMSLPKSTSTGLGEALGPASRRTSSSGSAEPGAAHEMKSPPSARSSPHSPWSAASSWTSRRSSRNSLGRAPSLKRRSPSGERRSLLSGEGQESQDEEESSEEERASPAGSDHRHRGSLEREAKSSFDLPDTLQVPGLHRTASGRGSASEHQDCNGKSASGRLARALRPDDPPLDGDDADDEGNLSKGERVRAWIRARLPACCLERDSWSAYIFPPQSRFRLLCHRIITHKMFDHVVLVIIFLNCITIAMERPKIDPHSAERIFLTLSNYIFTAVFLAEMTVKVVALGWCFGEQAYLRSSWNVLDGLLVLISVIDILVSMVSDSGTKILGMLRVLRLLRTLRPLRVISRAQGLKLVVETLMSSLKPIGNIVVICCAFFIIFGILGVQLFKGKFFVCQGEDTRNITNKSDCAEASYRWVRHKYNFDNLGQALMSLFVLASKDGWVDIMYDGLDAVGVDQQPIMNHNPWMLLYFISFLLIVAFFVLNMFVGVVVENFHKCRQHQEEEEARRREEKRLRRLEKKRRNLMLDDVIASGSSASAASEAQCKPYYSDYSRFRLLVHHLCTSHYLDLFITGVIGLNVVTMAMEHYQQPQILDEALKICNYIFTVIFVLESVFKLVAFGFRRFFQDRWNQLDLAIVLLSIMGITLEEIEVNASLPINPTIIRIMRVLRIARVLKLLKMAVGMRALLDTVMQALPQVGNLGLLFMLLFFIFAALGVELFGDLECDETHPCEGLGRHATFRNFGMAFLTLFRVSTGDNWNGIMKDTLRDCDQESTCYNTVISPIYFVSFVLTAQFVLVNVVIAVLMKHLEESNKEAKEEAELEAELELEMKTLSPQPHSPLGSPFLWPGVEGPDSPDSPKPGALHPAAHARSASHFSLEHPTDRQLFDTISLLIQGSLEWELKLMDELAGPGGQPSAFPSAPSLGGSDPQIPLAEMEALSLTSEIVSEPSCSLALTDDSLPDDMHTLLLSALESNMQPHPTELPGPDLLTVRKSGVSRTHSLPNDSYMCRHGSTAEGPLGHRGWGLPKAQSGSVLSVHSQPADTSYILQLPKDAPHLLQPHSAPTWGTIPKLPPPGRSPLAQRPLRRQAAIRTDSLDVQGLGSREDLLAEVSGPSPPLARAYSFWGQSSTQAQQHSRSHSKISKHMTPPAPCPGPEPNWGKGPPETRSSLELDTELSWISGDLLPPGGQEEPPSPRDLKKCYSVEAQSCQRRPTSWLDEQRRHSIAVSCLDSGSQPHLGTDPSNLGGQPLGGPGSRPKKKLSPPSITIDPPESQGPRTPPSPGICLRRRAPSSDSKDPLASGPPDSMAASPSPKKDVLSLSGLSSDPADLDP

In the case of `OC(COc1ccc(F)cc1)CN1CCN(Cc2nccn2Cc2ccccc2)CC1` (stereo in doubt) [KKRE10154, (R)-1-(4-((1-benzyl-1H-imidazol-2-yl)methyl)piperazin-1-yl)-3-(4-fluorophenoxy)propan-2-ol], the inhibition at 101 µM on TREK-1 channel came to 26.5 ± 3.97%. For the same compound, the inhibition in experiment [1] was determined as 39.9%.
As to `O[C@@H](COc1ccc(C(F)(F)F)cc1)CN1CCN(Cc2nccn2Cc2ccccc2)CC1` [KKRE10153, (R)-1-(4-((1-benzyl-1H-imidazol-2-yl)methyl)piperazin-1-yl)-3-(4-(trifluoromethyl)phenoxy)propan-2-ol], on TREK-1 channel, the inhibition at 10 µM turned out to be 52.1% and the inhibition at 101 µM was 52.1 ± 7.24%. For the same compound, the inhibition in experiment [1] was 46.9%.
As to `O[C@@H](COc1ccc(F)cc1)CN1CCN(Cc2nccn2Cc2ccccc2)CC1` [KKRE10155, (R)-1-(4-((1-benzyl-1H-imidazol-2-yl)methyl)piperazin-1-yl)-3-(4-fluorophenoxy)propan-2-ol], at TREK-1 channel, the inhibition at 101 µM is 24 ± 10.6%. For the same compound, the inhibition in experiment [1] came out at 33.7%.
For `O[C@@H](COc1ccc(F)cc1)CN1CCC(N2CCOCC2)CC1` [KKRE10156, (R)-1-(4-fluorophenoxy)-3-(4-morpholinopiperidin-1-yl)propan-2-ol], in that order: 16.4 ± 5.65% and 5.31%.
For `O[C@H](COc1ccc(F)cc1)CN1CCC(N2CCOCC2)CC1` [KKRE10157, (S)-1-(4-fluorophenoxy)-3-(4-morpholinopiperidin-1-yl)propan-2-ol], in that order: 29.6 ± 3.71% and 9.33%.
The corresponding values for `O[C@@H](COc1ccc(F)cc1)CN1CCC(N2CCCCC2)CC1` [KKRE10158, (R)-1-(1,4′-bipiperidin-1′-yl)-3-(4-fluorophenoxy)propan-2-ol] are 16.8 ± 2.73% and 6.65%.
On to `O[C@H](COc1ccc(F)cc1)CN1CCC(N2CCCCC2)CC1` [KKRE10159, (S)-1-(1,4′-bipiperidin-1′-yl)-3-(4-fluorophenoxy)propan-2-ol], for which the inhibition at 101 µM at TREK-1 channel turned out to be 13.4 ± 5.78%. The inhibition in experiment [1] came out at 6.37%.
For `O[C@@H](COc1ccc(F)cc1)CN1CCC(N2CCCC2)CC1` [KKRE10160, (R)-1-(4-fluorophenoxy)-3-(4-(pyrrolidin-1-yl)piperidin-1-yl)propan-2-ol], in that order: 4.13 ± 4.43% and 0.31%.
Turning to `O[C@H](COc1ccc(F)cc1)CN1CCC(N2CCCC2)CC1` [KKRE10161, (S)-1-(4-fluorophenoxy)-3-(4-(pyrrolidin-1-yl)piperidin-1-yl)propan-2-ol], the inhibition at 101 µM on TREK-1 channel worked out at 8.28 ± 3.49%. Further, the inhibition in experiment [1] is -0.06%.
For `O=C(CN1CCN(C[C@H](O)COc2ccc(C(F)(F)F)cc2)CC1)NCc1ccc(C(F)(F)F)cc1` [KKRE10173, (S)-2-(4-(2-hydroxy-3-(4-(trifluoromethyl)phenoxy)propyl)piperazin-1-yl)-N-(4-(trifluoromethyl)benzyl)acetamide], at TREK-1 channel, the inhibition at 10 µM amounted to 63.2% and the inhibition at 101 µM worked out at 63.2 ± 7.6%. The inhibition in experiment [1] was found to be 53.6%.
In the case of `Cc1ccc(CNC(=O)CN2CCN(C[C@H](O)COc3ccc(C(F)(F)F)cc3)CC2)cc1` [KKRE10174, (S)-2-(4-(2-hydroxy-3-(4-(trifluoromethyl)phenoxy)propyl)piperazin-1-yl)-N-(4-methylbenzyl)acetamide], on TREK-1 channel, the inhibition at 10 µM worked out at 37.6% and the inhibition at 101 µM was found to be 37.6 ± 5.55%. For the same compound, the “block % at 100 μM” value on TREK-1 channel (Table 2) is recorded as 88.17%. Besides, the “block % at 100 μM” value at TREK-1 channel (Table 3 (value ± spread)) was determined as 88.17 ± 4.60%. Further, the inhibition in experiment [1] worked out at 48.8%.
For `O=C(CN1CCN(C[C@H](O)COc2ccc(C(F)(F)F)cc2)CC1)NC1CCCCC1` [KKRE10175, (S)-N-cyclohexyl-2-(4-(2-hydroxy-3-(4-(trifluoromethyl)phenoxy)propyl)piperazin-1-yl)acetamide], in that order: 18.1%, 18.1 ± 6.92%, 74.61%, 74.61 ± 2.15% and 43.1%.
As for `O=C(CN1CCN(C[C@@H](O)COc2ccc(C(F)(F)F)cc2)CC1)NC1CCCCC1` [KKRE10176, (R)-N-cyclohexyl-2-(4-(2-hydroxy-3-(4-(trifluoromethyl)phenoxy)propyl)piperazin-1-yl)acetamide], the inhibition at 101 µM at TREK-1 channel came out at 33.5 ± 5.67%. For the same compound, in experiment [1], the inhibition is 43.9%.
On to `O=C(CN1CCN(CC(O)COc2ccc(C(F)(F)F)cc2)CC1)NC1CCCCC1` (stereo not drawn) [KKRE10177, N-cyclohexyl-2-(4-(2-hydroxy-3-(4-(trifluoromethyl)phenoxy)propyl)piperazin-1-yl)acetamide], for which the inhibition in experiment [1] came to 42%.
The same measure, in the same setting: for `O[C@H](COc1ccc(C(F)(F)F)cc1)CN1CCC(N2CCCC2)CC1` [KKRE10189, (S)-1-(4-(pyrrolidin-1-yl)piperidin-1-yl)-3-(4-(trifluoromethyl)phenoxy)propan-2-ol] the value was 8.45%; for `O[C@H](COc1ccc(C(F)(F)F)cc1)CN1CCC(F)(F)CC1` [KKRE10190, (S)-1-(4,4-difluoropiperidin-1-yl)-3-(4-(trifluoromethyl)phenoxy)propan-2-ol], 35%.
The same measure, in the same setting: as for `O[C@H](COc1ccc(C(F)(F)F)cc1)CN1CCC(O)(c2ccccc2)CC1` [KKRE10191, (S)-1-(2-hydroxy-3-(4-(trifluoromethyl)phenoxy)propyl)-4-phenylpiperidin-4-ol], the figure is 16.8%; as for `O=C(CN1CCN(C[C@@H](O)COc2ccc(C(F)(F)F)cc2)CC1)NCc1cc(C2CC2)n(-c2ccccc2)n1` [KKRE10212, (R)-N-((5-cyclopropyl-1-phenyl-1H-pyrazol-3-yl)methyl)-2-(4-(2-hydroxy-3-(4-(trifluoromethyl)phenoxy)propyl)piperazin-1-yl)acetamide], 74.3%.
